Assay results reported in ChEMBL document CHEMBL1142755, “A macromolecular prodrug of doxorubicin conjugated to a biodegradable cyclotriphosphazene bearing a tetrapeptide” (2005).
Counter-ions that a name gives are not always drawn.

System: L1210
Test: In vitro cytotoxicity against Leukemia L1210 cell line
Type: functional
Conditions: Mus musculus

Q: For `COc1cccc2c1C(=O)c1c(O)c3c(c(O)c1C2=O)C[C@@](O)(C(=O)CO)C[C@@H]3O[C@H]1C[C@H](N)[C@H](O)[C@H](C)O1` [DOXORUBICIN HYDROCHLORIDE], which EC50 (read-out: ED50 (the source's name)) is on record?
A: Its EC50 is 100 nM.

Q: For CISPLATIN, which ED50 is on record?
A: The ED50 was 1000 nM.
